In patent US20170368148A1, “USES OF A PTHrP ANALOGUE IN REDUCING FRACTURE RISK” (RADIUS HEALTH, INC., priority 2015, published 2017):
Marks after values point to notes of the source that are not given here.

Experiments:
[1] = tested on: postmenopausal women with osteoporosis; assay: ACTIVE trial: BMD by DXA; format: in vivo, human; details: for Mean percent change in BMD from baseline (ANCOVA), Femoral Neck / Mean percent change in BMD from baseline (ANCOVA), Lumbar Spine / Mean percent change in BMD from baseline (ANCOVA), Total Hip / Mean percent change in BMD from baseline (MMRM), Femoral Neck / Mean percent change in BMD from baseline (MMRM), Lumbar Spine / Mean percent change in BMD from baseline (MMRM), Total Hip: abaloparatide 80 μg or teriparatide 20 μg daily
Protocol: (§1) BMD and bone turnover biomarkers (CTX and P1NP) were also evaluated in all patient groups to compare the effects of abaloparatide versus teriparatide.
As set forth in the ACTIVE protocol, the primary efficacy endpoint was the number of patients treated with abaloparatide with incident vertebral fractures at the end of treatment as compared to those who received placebo. The pre-specified secondary efficacy parameters included, among other endpoints, reduction in the incidence/risk of non-vertebral fractures; changes in BMD of the spine, hip, and femoral neck from baseline to end of treatment as assessed by DXA and as compared to teriparatide; and the number of hypercalcemic events in abaloparatide treated patients when compared to teriparatide at end of treatment.
Comparative analyses of abaloparatide versus teriparatide were completed on the following BMD secondary endpoints using a Mixed-Effect Model for Repeated Measures (MMRM) method, shown in Table 4 below:
Comparative analyses of the PTHrP analogues abaloparatide and teriparatide were completed on the following BMD secondary endpoints using an ANCOVA approach, shown in Table 5 below: […]

[2] = tested on: postmenopausal women with osteoporosis; assay: Phase 2 24-week dose-finding trial (48-week extension): BMD by DXA; format: in vivo, human
Text: Healthy postmenopausal women between the ages of 55 to 85 (based on a 5-year history of amenorrhea and an elevated serum level of FSH) were enrolled in the study if they met one of the following the following definitions of osteoporosis:
Dual X-ray absorptiometry: DXA scans were obtained at each local site and then sent to a central imaging reader (BioClinica Inc. Newton, PA) where they underwent a quality control review and then analyzed according to each manufacturers guidelines. Scans performed during the treatment period on the same instrument used for the baseline scan were acquired. Each study site performed Instrument Quality Control over time (instrument standardization and phantom calibration) that was reviewed by the central reader.
BMD was re-measured at the 48-week visit.

[3] = tested on: postmenopausal women with osteoporosis; assay: Phase 2 24-week trial: serum biochemical markers of bone turnover; format: in vivo, human; details: 24 weeks; 20 μg daily SC
Protocol: Biochemical Markers of bone turnover: Fasting morning blood samples (collected 24 hours after last injection if taking teriparatide) were obtained at each visit. Serum osteocalcin (OC) was measured via electrochemiluminescence assay (Roche Diagnostics, Basel, Switzerland), with […] coefficients of variation (CVs) of 1.8% and 4.8% respectively. Serum amino-terminal propeptide of type 1 procollagen (P1NP) was measured via radioimmunoassay (Orion Diagnostica, Espoo, Finland) with inter- and intra-assay CVs of 4.5% and 5.5% respectively. Serum β-c-terminal telopeptide of type one collagen (CTX) was measured via electrochemiluminescence assay (Roche Diagnostics, Basel, Switzerland) with inter- and intraassay CVs of 3.8% and 6.9% respectively.

[4] = tested on: postmenopausal osteoporotic women; assay: Trabecular bone score (TBS) from spinal DXA, phase 2 trial; format: in vivo, human; details: 20 μg daily SC
Text: To assess the effects of the PTHrP analogue abaloparatide on trabecular microarchitecture as indirectly assessed by TBS, the TBS (TBS Calculator v2.2, Medimaps group, Plan-les-Ouates, Geneva, Switzerland) in a blinded fashion at 0, 12, and 24-weeks in 222 postmenopausal osteoporotic women (age 55-85) who were randomized to receive 24-weeks of daily subcutaneous injections of placebo, abaloparatide 20-μg, abaloparatide 40-μg. abaloparatide 80-μg, or teriparatide (TPTD) 20-μg was retrospectively calculated. Between groups differences in the mean percent TBS changes were assessed by unpaired t-test.

[5] = tested on: postmenopausal women with osteoporosis; assay: ACTIVE trial: bone turnover markers (CTX, P1NP); format: in vivo, human; details: at 18 months
Protocol: The ACTIVE phase 3 fracture prevention trial was conducted for abaloparatide in postmenopausal women with osteoporosis who were otherwise healthy. The enrolled subjects were treated with 80 micrograms (μg) of abaloparatide, a matching placebo, or the approved daily dose of 20 μg of teriparatide for 18 months. The ACTIVE trial evaluated fracture rates, fracture risks, BMD, and bone turnover biomarkers (e.g., CTX and P1NP) in all patient groups.
as §1

[6] = tested on: postmenopausal women with osteoporosis; assay: ACTIVE trial: adverse events; details: 18 months; abaloparatide 80 μg (n = 822), teriparatide 20 μg (n = 818)
Protocol: Safety evaluations performed in the ACTIVE trial included physical examinations, vital signs, 12-lead electrocardiograms, or ECGs, clinical laboratory tests and monitoring, and recording of adverse events. Specific safety assessments included pre-dose and post-dose (four hours) determination of serum calcium, determination of creatinine clearance, post-dose ECG assessments at selected visits, and assessments of postural hypotension (60 minutes post-dose) at selected clinic visits.
The ACTIVE trial also evaluated several potential safety measures, including blood calcium levels, orthostatic hypotension, nausea, dizziness, and injection-site reactions.

[7] = tested on: postmenopausal women with osteoporosis; assay: Phase 2 trial: safety, serum calcium, antibody formation; details: 20 μg daily SC
Protocol: All subjects received supplemental calcium (500-1000 mg) and vitamin D (400-800 IU) per local practice. […] Blood calcium levels were assessed 4-hours and 24-hours after drug administration. Subjects were monitored for adverse events (AEs) and local tolerance at the injection site at each visit. Clinical and laboratory safety parameters, electrocardiograms, were also measured at each study visit.
Efficacy and safety were assessed using all randomized patients who received at least one dose of study drug. Baseline characteristics and safety parameters were summarized using descriptive statistics. […] All hypotheses were tested at the 2-sided 5% significance level.

[8] = 24 weeks, abaloparatide 80 μg, teriparatide 20 μg, valid-completers
[9] = 48 weeks (extension), 20 μg daily SC

CC[C@H](C)[C@H](NC(=O)[C@H](CCC(=O)O)NC(=O)[C@H](CO)NC(=O)[C@@H](NC(=O)[C@@H](N)CO)C(C)C)C(=O)N[C@@H](CCC(N)=O)C(=O)N[C@@H](CC(C)C)C(=O)N[C@@H](CCSC)C(=O)N[C@@H](Cc1cnc[nH]1)C(=O)N[C@@H](CC(N)=O)C(=O)N[C@@H](CC(C)C)C(=O)NCC(=O)N[C@@H](CCCCN)C(=O)N[C@@H](Cc1cnc[nH]1)C(=O)N[C@@H](CC(C)C)C(=O)N[C@@H](CC(N)=O)C(=O)N[C@@H](CO)C(=O)N[C@@H](CCSC)C(=O)N[C@@H](CCC(=O)O)C(=O)N[C@@H](CCCN=C(N)N)C(=O)N[C@H](C(=O)N[C@@H](CCC(=O)O)C(=O)N[C@@H](Cc1c[nH]c2ccccc12)C(=O)N[C@@H](CC(C)C)C(=O)N[C@@H](CCCN=C(N)N)C(=O)N[C@@H](CCCCN)C(=O)N[C@@H](CCCCN)C(=O)N[C@@H](CC(C)C)C(=O)N[C@@H](CCC(N)=O)C(=O)N[C@@H](CC(=O)O)C(=O)N[C@H](C(=O)N[C@@H](Cc1cnc[nH]1)C(=O)N[C@@H](CC(N)=O)C(=O)N[C@@H](Cc1ccccc1)C(=O)O)C(C)C)C(C)C [teriparatide, hPTH(1-34)]
Mean percent change in BMD from baseline (ANCOVA), Femoral Neck ([1]; 6 mo): 0.80%* | Mean percent change in BMD from baseline (ANCOVA), Lumbar Spine ([1]; 6 mo): 4.84%* | Mean percent change in BMD from baseline (ANCOVA), Total Hip ([1]; 6 mo): 1.33%* | Mean percent change in BMD from baseline (MMRM), Femoral Neck ([1]; 6 mo): 0.87%* | Mean percent change in BMD from baseline (MMRM), Lumbar Spine ([1]; 6 mo): 5.25%* | Mean percent change in BMD from baseline (MMRM), Total Hip ([1]; 6 mo): 1.44%* | Mean percent change in BMD from baseline (ANCOVA), Femoral Neck ([1]; 12 mo): 1.41%* | Mean percent change in BMD from baseline (ANCOVA), Lumbar Spine ([1]; 12 mo): 7.40%* | Mean percent change in BMD from baseline (ANCOVA), Total Hip ([1]; 12 mo): 2.03%* | Mean percent change in BMD from baseline (MMRM), Femoral Neck ([1]; 12 mo): 1.54%* | Mean percent change in BMD from baseline (MMRM), Lumbar Spine ([1]; 12 mo): 8.28%* | Mean percent change in BMD from baseline (MMRM), Total Hip ([1]; 12 mo): 2.29%* | Subjects with increased BMD of >3% at all three sites (lumbar spine, total hip, femoral neck) ([1]; 12 months): 19.8% | Mean percent change in BMD from baseline (ANCOVA), Femoral Neck ([1]; 18 mo): 2.26%* | Mean percent change in BMD from baseline (ANCOVA), Lumbar Spine ([1]; 18 mo): 9.12%* | Mean percent change in BMD from baseline (ANCOVA), Total Hip ([1]; 18 mo): 2.81%* | Mean percent change in BMD from baseline (MMRM), Femoral Neck ([1]; 18 mo): 2.66%* | Mean percent change in BMD from baseline (MMRM), Lumbar Spine ([1]; 18 mo): 10.49%* | Mean percent change in BMD from baseline (MMRM), Total Hip ([1]; 18 mo): 3.26%* | Subjects with increased BMD of >3% at all three sites (lumbar spine, total hip, femoral neck) ([1]; 18 months): 32.0% | Subjects with increased BMD of >3% at all three sites (lumbar spine, total hip, femoral neck) ([1]; month 6): 6.5% | Femoral neck BMD increase ([2]; 24 weeks, 20 μg daily SC): 1.1±4.6% | Lumbar spine BMD increase (±SD) ([2]; 24 weeks, 20 μg daily SC): 5.5±4.1% | Total hip BMD increase ([2]; 24 weeks, 20 μg daily SC): 0.5±3.9% | Percentage of subjects with a >3% BMD gain at the lumbar spine [2, 8]: 70% | Percentage of subjects with a >3% total hip BMD gain [2, 8]: 16% | Femoral neck BMD increase [2, 9]: 2.2% | Lumbar spine BMD increase [2, 9]: 8.6% | Total hip BMD increase [2, 9]: 1.3% | CTX increase, median (interquartile range) [3]: 76 (13, 130) % | P1NP increase, median (interquartile range) [3]: 98 (21, 184) % | TBS mean percent change ([4]; 12 weeks): +1.5% | TBS mean percent change ([4]; 24 weeks): +2.6% | CTX level compared to placebo [5]: elevated levels compared to placebo | AE: Arthralgia [6]: 8.6% | AE: Back pain [6]: 7.2%^‡ | AE: Constipation [6]: 4.2% | AE: Dizziness [6]: 7.3% | AE: Headache [6]: 6.2% | AE: Hypercalcemia (serum albumin-corrected calcium value ≧10.7 mg/dL) [6]: 6.37%^† | AE: Hypercalciuria [6]: 12.5%^‡ | AE: Hypertension [6]: 5.0% | AE: Influenza [6]: 4.2% | AE: Nasopharyngitis [6]: 6.5% | AE: Nausea [6]: 5.1%^‡ | AE: Pain in extremity [6]: 5.1% | AE: Palpitations [6]: 1.6%^‡ | AE: Upper respiratory tract infection [6]: 8.9% | AE: Urinary tract infection [6]: 5.0% | Highest serum calcium value obtained by any subject ([7]; 4-hours post-dose): 12.6 mg/dL | Patients with serum calcium levels ≧10.5 mg/dL ([7]; 4-hours post-dose): 40% | Patients with serum calcium levels ≧10.5 mg/dL ([7]; 24-hours after the last injection): 16% | Highest serum calcium value obtained by any patient ([7]; 24-hours post-dose): 11.2 mg/dL | Dizziness ([7]; 24 weeks): 4% | Incidence of headache ([7]; 24 weeks): 13% | Patients discontinued due to AEs ([7]; 24 weeks): 4% | Proportion of patients that experienced TEAEs ([7]; 24 weeks): 78% | TEAEs possibly or probably related to study treatment ([7]; 24 weeks): 29% | Treatment-related TEAEs ([7]; extension to 48 weeks): 21%
